# “And” between values parts separate entries of the source, which are not always exact repeats. Equal entries are not always repeated.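 These data come from cells grown in 96-well plates and exposed to compound for 48 hours at five concentrations. Here, GI50 denotes the concentration required for 50% inhibition of growth. TGI denotes the concentration required for complete inhibition of growth.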
# Columns and labels:
# Test in all cases: NCI tumour cell line growth inhibition, 48 h
# MCF7 breast = system: MCF7 breast
# M19-MEL melanoma = system: M19-MEL melanoma
# DLD-1 colon = system: DLD-1 colon
# XF 498 CNS = system: XF 498 CNS
# SNB-78 CNS = system: SNB-78 CNS
# KM20L2 colon = system: KM20L2 colon
# LXFL 529 NSCLC = system: LXFL 529 NSCLC
# MDA-N = system: MDA-N
# P388 leukemia = system: P388 leukemia
# RXF-631 renal = system: RXF-631 renal
SMILES,GI50 (MCF7 breast),TGI (MCF7 breast),TGI (M19-MEL melanoma),TGI (DLD-1 colon),TGI (SNB-78 CNS),TGI (KM20L2 colon),TGI (LXFL 529 NSCLC),also measured
CCCCOC(=O)c1ccc(NC(=O)CCl)cc1,2.35 µM,10 µM,–,–,–,–,–,–
CCOc1ccc2nc(-c3cccc(OCC(=O)NC(C)C)c3)nc(Nc3ccc(-c4cn[nH]c4)cc3)c2c1,0.348 µM,2.11 µM,–,–,–,–,–,–
O=CC(Br)C(Br)c1ccccc1 (centres undefined),0.478 µM,2.23 µM,–,–,–,–,–,–
CSc1n(Cc2ccc3ccccc3c2)c(C)c[n+]1Cc1ccc2ccccc2c1,0.505 µM,1.88 µM,–,–,–,–,–,–
CC(C)N1CCC2(CC1)NNc1ncccc1-n1cccc12,–,–,> 100 µM,> 100 µM,> 100 µM,–,–,TGI (XF 498 CNS): > 100 µM
COc1ccc2c3c(c4ccccc4cc13)C(=O)N(CCN(C)CCN)C2=O,0.0133 µM,1.1 µM,–,–,–,–,–,–
CN(C)C(=S)/N=c1\ss/c(=N\C(=S)N(C)C)n1-c1ccc(Cl)cc1,–,–,–,–,> 100 µM,> 100 µM,> 100 µM,TGI (XF 498 CNS): > 100 µM
CCOC(=O)[C@H]1CSC[C@@H](C(=O)OC)N1,–,–,> 100 µM,> 100 µM,–,–,> 100 µM,–
O=C(O)C1C(=O)Oc2c(cccc2[N+](=O)[O-])C1O (centres undefined),–,–,–,–,–,–,–,TGI (MDA-N): > 100 µM
Nc1nc2ccc3[nH]ncc3c2c2c1CCCC2,0.403 µM,7.25 µM,–,–,–,–,–,–
O=C(NCCCCCCNC(=O)n1cc(F)c(=O)[nH]c1=O)NCCCOCCOCCOCCOCCOCCOCCOCCOCCOCCOCCOCCOCCOCCOCCOCCOCCOCCOCCOCCOCCOCCCNC(=O)C(O)C(O)C(OC1OC(CO)C(O)C(O)C1O)C(O)CO (centres undefined),–,> 46.8 µM,> 100 µM,> 100 µM,> 100 µM,> 100 µM,–,TGI (MDA-N): > 100 µM; TGI (XF 498 CNS): > 100 µM; TGI (P388 leukemia): > 100 µM
COc1ccc2nc3cc([N+](=O)[O-])ccc3c(NCCCN(CCO)CCO)c2c1,0.889 µM,4.95 µM,–,–,–,–,–,GI50 (MDA-N): 3.47 µM; TGI (MDA-N): 8.93 µM
Cc1cc([N+](=O)[O-])ccc1NS(=O)(=O)c1cc(Cl)ccc1Cl,2.51 µM,> 49.4 µM,–,–,–,–,–,–
Fc1cccc(CSc2ncnc3c2ncn3C2CCCS2)c1 (centres undefined),–,63.7 µM,–,–,–,–,–,TGI (MDA-N): 56.8 µM
O=C(O)c1ccc2c3c(ncnc13)-c1ccccc1C2=O,4.14 µM,> 100 µM,–,–,–,–,–,–
Cc1cccc(Cl)c1NC(=O)c1cnc(Nc2cc(N3CCOCC3)cc(N3CCOCC3)c2)s1,> 4.47 µM,> 10 µM,–,–,–,–,–,–
COC(=O)c1ccc(NC(=O)c2cc(OC)c(OC)c(OC)c2)cc1,–,–,> 100 µM,> 100 µM,–,> 100 µM,> 100 µM,–
O=C(O)C(C(=O)C(=O)C(C(=O)O)c1ccc(Cl)cc1)c1ccc(Cl)cc1 (centres undefined),–,–,12.5 µM,14.1 µM,13.9 µM,11.3 µM,10.7 µM,TGI (XF 498 CNS): 5.95 µM
O=c1cc(-c2ccccc2)nc(/C=C(\O)c2ccncc2)n1-c1ccccc1,–,–,> 100 µM,> 100 µM,> 100 µM,> 100 µM,> 100 µM,–

SMILES,GI50 (MCF7 breast),TGI (MCF7 breast),TGI (M19-MEL melanoma),TGI (DLD-1 colon),TGI (SNB-78 CNS),TGI (KM20L2 colon),TGI (LXFL 529 NSCLC),also measured
COc1ccc(OC)c(NCC#N)c1,–,–,> 100 µM,–,–,> 100 µM,–,TGI (XF 498 CNS): > 100 µM; TGI (RXF-631 renal): > 100 µM
CC(=O)C1COC(O)C1C (centres undefined),–,67.3 µM,–,–,–,–,–,TGI (MDA-N): 43.5 µM
CC(=O)Nc1ccc(-c2nnc(SCC(=O)Nc3cccc([N+](=O)[O-])c3)o2)cc1,–,–,28.3 µM,35.5 µM,50 µM,37.4 µM,17 µM,–
COc1cc2cc3c4c(cc(OC)c(OC)c4c2cc1OC)CCN3C(=O)N(C)C,–,–,> 100 µM,> 100 µM,> 100 µM,> 100 µM,> 100 µM,–
CCOc1ccccc1N1C(=O)C(=O)C(c2nc3ccccc3o2)/C(=N\N)C1=O (centres undefined),–,–,> 100 µM,> 100 µM,> 100 µM,> 100 µM,> 100 µM,–
COc1cc(F)cc([C@@H](CO)NC(=O)[C@@H](C)N2Cc3ccc(-c4nc(NC5CCOCC5)ncc4Cl)cc3C2=O)c1,9.67 µM,49.6 µM,–,–,–,–,–,–
COc1c2c(c(CC=C(C)C)c3oc(=O)c(-c4ccc(O)cc4)c(O)c13)OC(C)(C)C=C2,–,54.3 µM,–,–,–,–,–,–
NC(=O)C(=Cc1ccc(CP(=O)(O)O)cc1)C(N)=O,–,–,> 100 µM,> 100 µM,> 100 µM,> 100 µM,> 100 µM,TGI (XF 498 CNS): > 100 µM
CN[C@@H]1C[C@H]2O[C@@](C)([C@@H]1OC)n1c3ccccc3c3c4c(c5c6ccccc6n2c5c31)C(=O)N[C@H]4O,0.0283 µM,1.51 µM,–,–,–,–,–,–
C/C(CC(=O)Nc1ccc(Cl)cc1)=N\NC(=O)C[n+]1ccccc1,–,–,–,> 100 µM,> 100 µM,> 100 µM,> 100 µM,TGI (XF 498 CNS): > 100 µM; TGI (RXF-631 renal): > 100 µM
O=C(Nc1ccc2[nH]c(C(=O)N3CC(CCl)c4c3cc([N+](=O)[O-])c3ccccc43)cc2c1)c1cc2ccccc2o1 (centres undefined),> 1100 µM,> 1100 µM,–,–,–,–,–,GI50 (MDA-N): > 1100 µM; TGI (MDA-N): > 1100 µM
O=C(/C=C/c1cccc([N+](=O)[O-])c1)c1ccc(O)c(CN2CCN(c3cc4c(cc3F)c(=O)c(C(=O)O)cn4C3CC3)CC2)c1,0.332 µM,1.44 µM,–,–,–,–,–,–
NC(CC(=O)Nc1ccc(Cl)cc1)=Nc1ccccc1,–,–,> 100 µM,> 100 µM,> 100 µM,> 100 µM,> 100 µM,TGI (XF 498 CNS): > 100 µM
Cc1cc(Oc2cnc(=O)[nH]c2)cs1,–,> 100 µM,–,–,–,–,–,TGI (MDA-N): > 100 µM
COc1ccc2c(c1)c1nc3cc(C)c(C)cc3nc1n2CCN(C)C,0.333 µM,1.42 µM,–,–,–,–,–,–
NC(=S)N/N=C/c1ccc(O)cn1,2.03 µM,> 1500 µM,–,> 1500 µM,–,> 1500 µM,–,GI50 (M19-MEL melanoma): 15.4 µM and 9.44 µM; TGI (MDA-N): > 1180 µM; GI50 (KM20L2 colon): 31.7 µM and 19.7 µM and 10.6 µM; GI50 (DLD-1 colon): 39.6 µM and 31 µM; GI50 (XF 498 CNS): 15.6 µM; TGI (XF 498 CNS): 94 µM and 168 µM; TGI (P388 leukemia): 8.3 µM
Clc1cccc(N2CCN(CCN3CCc4c([nH]c5ccccc45)C3c3cccnc3)CC2)c1 (centres undefined),–,> 100 µM,> 100 µM,> 100 µM,> 100 µM,77.8 µM,> 100 µM,TGI (MDA-N): > 100 µM; TGI (XF 498 CNS): > 100 µM
COc1cc2c(cc1OC)-c1ccc3cc4c(cc3c1N(CCN(C)C)C2)OCO4,0.122 µM,5.98 µM,–,–,–,–,–,–
CCCCN=C(NC#N)N(Cc1ccccc1)Cc1ccccc1,–,–,35.8 µM,36.4 µM,> 100 µM,52.4 µM,32.8 µM,–

# Source: PubChem BioAssay (NCI)
